Data as given in ChEMBL document CHEMBL1140363, “Structure-driven HtL: design and synthesis of novel aminoindazole inhibitors of c-Jun N-terminal kinase activity” (Bioorg Med Chem Lett, 2005).

Biological target: Mitogen-activated protein kinase 8 (Homo sapiens, UniProt P45983)
Assay: Negative log of inhibitory concentration determined against c-Jun N-terminal kinase (Activity reported against the isolated JNK-1 enzyme)

Chain of Mitogen-activated protein kinase 8 (P45983 whole entry): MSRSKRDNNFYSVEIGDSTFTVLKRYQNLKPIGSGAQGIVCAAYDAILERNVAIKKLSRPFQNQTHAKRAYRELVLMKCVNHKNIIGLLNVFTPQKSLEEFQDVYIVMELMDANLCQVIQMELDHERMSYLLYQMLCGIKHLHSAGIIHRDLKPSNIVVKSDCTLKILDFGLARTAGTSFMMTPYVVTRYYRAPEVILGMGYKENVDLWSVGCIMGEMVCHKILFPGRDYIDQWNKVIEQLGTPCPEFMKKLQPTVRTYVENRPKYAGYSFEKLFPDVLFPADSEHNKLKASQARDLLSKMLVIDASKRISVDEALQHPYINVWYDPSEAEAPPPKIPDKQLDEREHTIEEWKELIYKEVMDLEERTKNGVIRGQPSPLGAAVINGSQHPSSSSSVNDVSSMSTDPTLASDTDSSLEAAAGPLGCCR

| SMILES | IC50 [nM] |
| --- | --- |
| O=C(NCc1ccccc1Cl)c1cccnc1Oc1ccccc1F | 1580 |
| Clc1cccc(CNc2[nH]nc3cccc(Oc4ccccc4)c23)c1 | 1260 |
| COc1ccc(Oc2ncccc2C(=O)NCc2ccccc2Cl)cc1 | 3980 |
| Nc1ccc2[nH]nc(NCc3ccccc3Cl)c2c1Oc1ccccc1 | 5010 |
| O=[N+]([O-])c1ccc2[nH]nc(NCc3ccccc3Cl)c2c1Oc1ccccc1 | 1580 |
| COc1ccc(OC)c(CNc2[nH]nc3ccc([N+](=O)[O-])c(Oc4ccccc4)c23)c1 | 794 |
| C[C@H](NC(=O)c1cccnc1Oc1ccccc1)c1ccccc1 | 6310 |
| CC(=O)Nc1ccc(CNc2[nH]nc3cccc(Oc4ccccc4)c23)cc1 | 794 |

The remaining compounds from weak to strong by IC50, led by results:

| IC50 [nM] | SMILES |
| --- | --- |
| 794 | CC(=O)Nc1ccc(CNc2[nH]nc3cccc(Oc4ccc(S(C)(=O)=O)cc4)c23)cc1 |
| 794 | Clc1ccc(Cl)c(CNc2[nH]nc3cccc(Oc4ccccc4)c23)c1 |
| 501 | CC(=O)Nc1ccc(CNc2[nH]nc3cccc(Oc4ccc(F)cc4)c23)cc1 |
| 398 | COc1ccc(OC)c(CNc2[nH]nc3cccc(Oc4ccc(S(C)(=O)=O)cc4)c23)c1 |
| 200 | COc1ccc(OC)c(CNc2[nH]nc3cccc(Oc4ccc(F)cc4)c23)c1 |
| 158 | CC(=O)Nc1ccc(CNc2[nH]nc3ccnc(Oc4ccccc4)c23)cc1 |
| 126 | COc1ccc(OC)c(CNc2[nH]nc3cccc(Oc4ccccc4)c23)c1 |
| 100 | COc1ccc(OC)c(CNC(=O)c2cccnc2Oc2ccccc2)c1 |
| 15.8 | COc1ccc(OC)c(CNc2[nH]nc3ccnc(Oc4ccccc4)c23)c1 |
